Reference: patent US20090137580A1, “Fused Heterocyclic Derivatives and Use Thereof” (Takeda Pharmaceutical Company Limited, priority 2005, published 2009)
pIC50: −log10 of the molar value.

Legend:
[1] = biological target: T1, VEGF Receptor 2 Kinase (VEGFR2) (Homo sapiens, UniProt P35968); test: Determination of VEGF receptor 2 kinase (VEGFR2) inhibitory activity (alpha screen); assay type: biochemical; details: VEGFR2 intracellular domain protein, 25 μM ATP buffer, read-out: inhibitory rate (kinase inhibitory rate of VEGFR2)
T1 construct: made in house; host or cells: SF-21 insect cells, recombinant baculovirus BAC-VEGFR2 (pFASTBAC1)
Experimental: For cloning of human VEGF receptor 2 (hereinafter to be abbreviated as VEGFR2) gene, PCR was performed using cDNA Libraries Human Placenta (Clontech) as a template. The primer used for PCR was prepared by, based on the information of the base sequence (Genbank Accession AF035121) of VEGFR2 gene, adding a base sequence encoding the flag peptide and a restriction enzyme recognition sequence to the base sequence (2671-4374 of Genbank Accession AF035121) encoding the VEGFR2 intracellular domain, so that a flag tag would be added to the N terminal of the protein. The primer base sequence is shown in the following.
PCR reaction was carried out using a KOD-plus kit (TOYOBO). The obtained PCR product was electrophoresed on an agarose gel (1%), and a DNA fragment amplified by PCR was recovered from the gel and digested with restriction enzymes Sal I and Sph I. The DNA after the restriction enzyme treatment was electrophoresed on an agarose gel (1%), and the obtained DNA fragment was recovered and ligated to the plasmid pFASTBAC1 (Invitrogen) digested with restriction enzymes Sal I and Sph I to give an expression plasmid pFB-VEGFR2. The base sequence of the inserted fragment was confirmed to have matched with the base sequence (2671-4374 of Genbank Accession AF035121) of the VEGFR2 intracellular domain. Furthermore, virus stock BAC-VEGFR2 of the recombinant Baculovirus was prepared using BAC-TO-BAC Baculovirus Expression System (Invitrogen).
SF-21 cells were inoculated into 1 L of Sf-900IISFM medium (Invitrogen) containing 10% fetal calf serum (trace), 50 mg/L Gentamicin (Invitrogen) and 0.1% Pluronic F-68 (Invitrogen) at 1×10^6 cells/ml, and shake culture was performed using a 2 L Erlenmeyer flask at 27° C., 100 rpm. After 24 hr of culture, recombinant Baculovirus BAC-VEGFR2 (13.4 mL) was added, and the culture was continued for 3 days. The culture medium was centrifuged at 2,000 rpm for 5 min to give virus-infected cells. The infected cells were washed with phosphate buffered saline (Invitrogen), centrifuged under the same conditions, and preserved at −80° C. The cryopreserved cells were thawed in ice, suspended in 30 mL of buffer A (Tris buffer, pH 7.4, containing 20% glycerol and 0.15M NaCl (50 mM)) supplemented with Complete Protease Inhibitor (Boehringer), and disrupted three times using a polytron homogenizer (Kinematica) at 20,000 rpm, 30 sec. The disrupt was clarified by centrifugation at 40,000 rpm, 30 min and filtered through a 0.45 μm filter. The filtrate was passed through a column packed with Anti-FLAG M2 Affinity Gel (Sigma Ltd., 4 mL) at a flow rate of about 0.5 mL/min. The column was washed with buffer A and eluted with buffer A containing 100 μg/mL FLAG peptide. The eluate was concentrated by Vivaspin 20 (Viva Science) having a fraction molecular weight of 30K. The concentrate was applied to NAP™ 25 column (Amersham Biosciences) equilibrated with buffer A for buffer exchange. The fractions containing the VEGFR2 intracellular domain protein were collected, glycerol was added to the final concentration of 50% and the fractions cryopreserved at ˜80° C.
The test compound dissolved in dimethyl sulfoxide (DMSO) was diluted with a buffer (50 mM Tris-HCl, pH 7.5, 5 mM MgCl2, 5 mM MnCl2, 2 mM dithiothreitol, 0.01% Tween-20). A buffer (10 μl) containing 50 ng/ml VEGFR2 intracellular domain protein and 250 ng/ml biotin-labeled polypeptide biotinyl-poly-Glu:Tyr (4:1) (CIS Bio International) was added to the compound solution (5 μl). A buffer (10 μl) containing 25 μM ATP was added to the obtained mixture, the mixture was allowed to react at 25° C. for 5 min. Then, 25 μl of a stop solution (100 mM EDTA·2 sodium salt, 62.5 mM HEPES buffer (pH 7.4), 250 mM NaCl, 0.1% bovine serum albumin, 10 μg/ml Streptavidin Donor beads: PerkinElmer for alpha screen assay, 10 μg/ml Anti-phosphotyrosine (P-Tyr-100) Acceptor beads: PerkinElmer for alpha screen assay) was added to quench the reaction. […]

[2] = biological target: T2, PDGFR Alpha Receptor Kinase (PDGFRalpha) (Homo sapiens, UniProt P16234); test: Determination of PDGFR alpha receptor kinase (PDGFRalpha) inhibitory activity (alpha screen); assay type: biochemical; details: PDGFRalpha intracellular domain protein, 25 μM ATP buffer; read-out: IC50 value (PDGFRalpha kinase inhibition)
T2 construct: PDGFRalpha intracellular domain protein (UPSTATE); purchased UPSTATE
Experimental: The test compound dissolved in dimethyl sulfoxide (DMSO) was diluted with a buffer (50 mM Tris-HCl, pH 7.5, 5 mM MgCl2, 5 mM MnCl2, 2 mM dithiothreitol, 0.01% Tween-20).
Acceptor beads: PerkinElmer for alpha screen assay) was added to quench the reaction. The reaction solution was stood at 25° C. for 16 hr, and the count was measured using a plate reader·Fusion™ (manufactured by PerkinElmer). The kinase inhibitory rate (%) of the test compound was calculated by the following formula.
(§1) Inhibitory rate(%)=(1−(count of test compound−blank)÷(control−blank))×100
(§2) wherein the count of the solution reacted without addition of the compound is “control” and the count of the solution without addition of the compound and ATP is “blank”.

[3] = biological target: T3, PDGFRbeta Receptor Kinase (PDGFRbeta) (Homo sapiens, UniProt P09619); test: Determination of PDGFRbeta receptor kinase (PDGFRbeta) inhibitory activity (alpha screen); assay type: biochemical; details: PDGFRbeta intracellular domain protein, 25 μM ATP buffer; read-out: IC50 value (PDGFRbeta kinase inhibition)
T3 construct: PDGFRbeta intracellular domain protein (UPSTATE); purchased UPSTATE
Experimental: (§3) The test compound dissolved in dimethyl sulfoxide (DMSO) was diluted with a buffer (50 mM Tris-HCl, pH 7.5, 5 mM MgCl2, 5 mM MnCl2, 2 mM dithiothreitol, 0.01% Tween-20). A buffer (10 μl) containing 125 ng/ml PDGFRbeta intracellular domain protein (UPSTATE) and 250 ng/ml biotin-labeled polypeptide biotinyl-poly-Glu:Tyr (4:1) (CIS Bio International) was added to the compound solution (5 μl). At 5 min after mixing a kinase enzyme, the compound and a biotin-labeled polypeptide, a buffer (10 μl) containing 25 μM ATP was added to the obtained mixture, the mixture was allowed to react at 25° C. for 30 min. Then, 25 μl of a stop solution (100 mM EDTA·2 sodium salt, 62.5 mM HEPES buffer (pH 7.4), 250 mM NaCl, 0.1% bovine serum albumin, 10 μg/ml Streptavidin Donor beads: PerkinElmer for alpha screen assay, 10 μg/ml Anti-phosphotyrosine (P-Tyr-66) Acceptor beads: PerkinElmer for alpha screen assay) was added to quench the reaction. The reaction solution was stood at 25° C. for 16 hr, and the count was measured using a plate reader·Fusion™ (manufactured by PerkinElmer). The kinase inhibitory rate (%) of the test compound was calculated by the following formula.
as §1, §2

[4] = test system: Human umbilical vein endothelial cells (HUVEC); test: Vascular endothelial cell growth inhibitory test; assay type: cell-based; details: Homo sapiens, 120 h, VEGF 120 ng/mL, culture 5 days, XTT reagent
Experimental: Human umbilical vein endothelial cells (HUVEC, purchased from KURABO) were cultured in a gas incubator (37° C., CO2 5%) in a vascular endothelial cell medium (Invitrogen) containing 5% fetal calf serum and a basic fibroblast growth factor (2.5 ng/mL). To be specific, HUVEC suspended in the aforementioned vascular endothelial cell medium (Invitrogen) containing 5% fetal calf serum were seeded into a 96 well flat-bottom plate (50 μL, 3000 cells each well). After culturing overnight, various concentrations of test substance and the final concentration (120 ng/mL) of vascular endothelial growth factor (VEGF) were dissolved in a vascular endothelial cell medium (Invitrogen) containing 5% fetal calf serum and added to each well (50 μL). After culturing for 5 days, an XTT reagent (Wako Pure Chemical Industries, Ltd.) was added to each well (10 μL), and reacted in a gas incubator (37° C., CO2 5%) for 2-3 hr. The absorbance at 450 nm was measured by a microtiter plate reader, and the cell growth inhibitory activity was determined.

[5] = biological target: T4, TIE2 Receptor Kinase (TIE2) (Homo sapiens, UniProt Q02763); test: Determination of TIE2 receptor kinase (TIE2) inhibitory activity (alpha screen); assay type: biochemical; details: TIE2 intracellular domain protein, 5 μM ATP buffer; read-out: IC50 value (TIE2 kinase inhibition)
T4 construct: TIE2 intracellular domain protein (UPSTATE); purchased UPSTATE
Experimental: as §3, with “containing 50” for “containing 125”, “ng/ml TIE2” for “ng/ml PDGFRbeta”, “containing 5” for “containing 25”, “for 10” for “for 30”
as §1, §2
Prism (Graphpad Software) according to the nonlinear-regression sigmoidal dose-response (variable slope) analysis method.

T1 sequence (P35968 786-1356 limits assumed): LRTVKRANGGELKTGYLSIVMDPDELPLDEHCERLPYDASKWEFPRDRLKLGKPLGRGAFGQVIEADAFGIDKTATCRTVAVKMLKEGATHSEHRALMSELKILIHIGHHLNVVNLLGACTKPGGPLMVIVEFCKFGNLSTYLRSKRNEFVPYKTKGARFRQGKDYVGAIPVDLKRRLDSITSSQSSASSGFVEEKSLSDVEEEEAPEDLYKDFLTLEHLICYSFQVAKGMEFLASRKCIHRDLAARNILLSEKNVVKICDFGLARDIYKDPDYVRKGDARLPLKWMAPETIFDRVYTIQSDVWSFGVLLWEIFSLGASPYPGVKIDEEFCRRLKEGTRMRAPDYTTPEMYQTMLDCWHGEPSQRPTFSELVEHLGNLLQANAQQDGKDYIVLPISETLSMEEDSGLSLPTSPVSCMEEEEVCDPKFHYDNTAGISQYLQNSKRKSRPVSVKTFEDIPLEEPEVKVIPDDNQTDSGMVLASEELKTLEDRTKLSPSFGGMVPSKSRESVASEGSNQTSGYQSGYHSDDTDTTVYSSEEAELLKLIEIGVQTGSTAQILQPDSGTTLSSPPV
T2 sequence (P16234 550-1089 limits assumed): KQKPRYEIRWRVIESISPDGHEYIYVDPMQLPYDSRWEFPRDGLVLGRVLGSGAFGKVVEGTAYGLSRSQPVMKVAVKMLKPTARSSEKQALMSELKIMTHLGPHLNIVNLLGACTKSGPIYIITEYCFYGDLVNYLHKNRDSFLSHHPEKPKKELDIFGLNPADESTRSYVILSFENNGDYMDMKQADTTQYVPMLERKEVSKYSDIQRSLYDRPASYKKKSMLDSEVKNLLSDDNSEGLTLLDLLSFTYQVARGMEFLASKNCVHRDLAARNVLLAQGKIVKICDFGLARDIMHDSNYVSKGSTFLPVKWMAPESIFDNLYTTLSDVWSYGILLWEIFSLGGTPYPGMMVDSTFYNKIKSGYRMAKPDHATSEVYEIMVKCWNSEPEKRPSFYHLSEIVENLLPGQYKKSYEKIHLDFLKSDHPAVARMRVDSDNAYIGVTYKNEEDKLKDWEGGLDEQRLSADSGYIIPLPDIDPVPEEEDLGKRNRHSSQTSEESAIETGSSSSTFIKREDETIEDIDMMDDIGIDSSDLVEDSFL
T3 sequence (P09619 554-1106 limits assumed): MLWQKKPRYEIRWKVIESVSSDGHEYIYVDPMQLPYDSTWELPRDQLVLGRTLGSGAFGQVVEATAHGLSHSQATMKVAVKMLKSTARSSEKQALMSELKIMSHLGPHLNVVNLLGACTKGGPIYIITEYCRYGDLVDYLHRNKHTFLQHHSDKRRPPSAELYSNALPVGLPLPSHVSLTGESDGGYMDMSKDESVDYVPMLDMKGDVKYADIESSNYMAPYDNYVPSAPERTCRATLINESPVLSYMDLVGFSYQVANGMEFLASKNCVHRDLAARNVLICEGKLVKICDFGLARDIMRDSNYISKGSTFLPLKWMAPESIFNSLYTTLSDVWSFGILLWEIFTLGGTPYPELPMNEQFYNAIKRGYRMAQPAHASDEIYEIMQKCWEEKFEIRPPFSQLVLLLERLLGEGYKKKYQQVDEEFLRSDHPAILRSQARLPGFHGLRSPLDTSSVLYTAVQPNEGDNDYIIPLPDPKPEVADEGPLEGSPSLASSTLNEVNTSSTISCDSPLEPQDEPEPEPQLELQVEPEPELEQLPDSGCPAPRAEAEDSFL
T4 sequence (Q02763 770-1124 limits assumed): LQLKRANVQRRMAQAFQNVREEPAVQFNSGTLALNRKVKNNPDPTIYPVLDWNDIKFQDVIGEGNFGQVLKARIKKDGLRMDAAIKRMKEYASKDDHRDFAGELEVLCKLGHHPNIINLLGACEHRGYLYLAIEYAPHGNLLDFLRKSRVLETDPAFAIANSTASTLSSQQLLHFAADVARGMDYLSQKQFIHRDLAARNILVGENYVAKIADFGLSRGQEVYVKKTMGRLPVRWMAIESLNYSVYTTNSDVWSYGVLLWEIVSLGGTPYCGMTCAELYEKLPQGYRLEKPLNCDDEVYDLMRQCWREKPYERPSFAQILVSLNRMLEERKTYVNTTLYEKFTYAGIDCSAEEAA

inhibition at 1 µM [1] [%] | pIC50 [2] | pIC50 [3] | pIC50 [5] | SMILES | pIC50 [4]
≥ 90 | ≥ 6.30 | ≥ 6.30 | – | Cn1ccc2ncnc(Oc3ccc(NC(=O)Nc4cccc(Cl)c4)cc3)c21 [Example 4, N-(3-chlorophenyl)-N′-{4-[(5-methyl-5H-pyrrolo[3,2-d]pyrimidin-4-yl)oxy]phenyl}urea] | 7.04
≥ 90 | ≥ 6.30 | ≥ 6.30 | ≥ 8.30 | COc1cc(Oc2ncnc3ccn(C)c23)ccc1NC(=O)Nc1cccc(C(F)(F)F)c1 [Example 77, N-{2-methoxy-4-[(5-methyl-5H-pyrrolo[3,2-d]pyrimidin-4-yl)oxy]phenyl}-N′-[3-(trifluoromethyl)phenyl]urea] | –
≥ 90 | ≥ 6.30 | ≥ 6.30 | – | Cc1cccc(NC(=O)Nc2ccc(Oc3ncnc4ccn(C)c34)cc2)c1 [Example 18, N-(3-methylphenyl)-N′-{4-[(5-methyl-5H-pyrrolo[3,2-d]pyrimidin-4-yl)oxy]phenyl}urea] | 7.28
